According to PubChem BioAssay AID1259407 (Chemical Carcinogenesis Research Information System (CCRIS), 2018):
Calls of active or inactive are those of the source. No rule for the calls is given here.

Test system: CCRIS mutagenicity, Ames/micronucleus/aberration tests
Experiment: CCRIS mutagenicity studies
[1] = Test System: AMES SALMONELLA TYPHIMURIUM, Strain/Indicator: TA98, Metabolic Activation: NONE, Method: STANDARD PLATE
[2] = Test System: AMES SALMONELLA TYPHIMURIUM, Strain/Indicator: TA100, Metabolic Activation: NONE, Method: STANDARD PLATE
[3] = Test System: AMES SALMONELLA TYPHIMURIUM, Strain/Indicator: TA1535, Metabolic Activation: NONE, Method: PREINCUBATION
[4] = Test System: AMES SALMONELLA TYPHIMURIUM, Strain/Indicator: TA1537, Metabolic Activation: NONE, Method: PREINCUBATION
[5] = Test System: AMES SALMONELLA TYPHIMURIUM, Strain/Indicator: TA97, Metabolic Activation: NONE, Method: PREINCUBATION
[6] = Test System: AMES SALMONELLA TYPHIMURIUM, Strain/Indicator: TA98, Metabolic Activation: NONE, Method: PREINCUBATION
[7] = Test System: AMES SALMONELLA TYPHIMURIUM, Strain/Indicator: TA100, Metabolic Activation: NONE, Method: PREINCUBATION

Cc1ccc(/C=C/c2ccc(N)cc2)cc1
mutagenic call (Test System: AMES SALMONELLA TYPHIMURIUM, Strain/Indicator: TA98(1,8-DNP6), Metabolic Activation: NONE, Method: STANDARD PLATE): inactive; negative
mutagenic call (Test System: AMES SALMONELLA TYPHIMURIUM, Strain/Indicator: TA98(1,8-DNP6), Metabolic Activation: S-9, Method: STANDARD PLATE): active; positive
mutagenic call [1]: inactive; negative
mutagenic call (Test System: AMES SALMONELLA TYPHIMURIUM, Strain/Indicator: TA98, Metabolic Activation: RAT LIVER S9, AROCHLOR, Method: STANDARD PLATE): active; positive
mutagenic call (Test System: AMES SALMONELLA TYPHIMURIUM, Strain/Indicator: TA98, Metabolic Activation: S-9, Method: STANDARD PLATE): active; positive
mutagenic call [2]: inactive; negative
mutagenic call (Test System: AMES SALMONELLA TYPHIMURIUM, Strain/Indicator: TA100, Metabolic Activation: RAT, LIVER, S9, AROCLOR, Method: STANDARD PLATE): active; positive
mutagenic call (Test System: AMES SALMONELLA TYPHIMURIUM, Strain/Indicator: TA100, Metabolic Activation: S-9, Method: STANDARD PLATE): active; positive

Nc1ccc2cc3ccccc3nc2c1
mutagenic call [3]: inactive; negative
mutagenic call (Test System: AMES SALMONELLA TYPHIMURIUM, Strain/Indicator: TA1535, Metabolic Activation: RAT, LIVER, S-9, TETRACHLOROBIPHENYL, Method: PREINCUBATION): active; positive
mutagenic call [4]: active; positive
mutagenic call (Test System: AMES SALMONELLA TYPHIMURIUM, Strain/Indicator: TA1537, Metabolic Activation: RAT, LIVER, S-9, TETRACHLOROBIPHENYL, Method: PREINCUBATION): active; positive
mutagenic call (Test System: AMES SALMONELLA TYPHIMURIUM, Strain/Indicator: TA1538, Metabolic Activation: NONE, Method: PREINCUBATION): active; positive
mutagenic call (Test System: AMES SALMONELLA TYPHIMURIUM, Strain/Indicator: TA1538, Metabolic Activation: RAT, LIVER, S-9, TETRACHLOROBIPHENYL, Method: PREINCUBATION): active; positive
mutagenic call (Test System: AMES SALMONELLA TYPHIMURIUM, Strain/Indicator: TA1975, Metabolic Activation: RAT, LIVER, S-9, TETRACHLOROBIPHENYL, Method: PREINCUBATION): inactive; negative
mutagenic call (Test System: AMES SALMONELLA TYPHIMURIUM, Strain/Indicator: TA1977, Metabolic Activation: NONE, Method: PREINCUBATION): active; positive
mutagenic call (Test System: AMES SALMONELLA TYPHIMURIUM, Strain/Indicator: TA1977, Metabolic Activation: RAT, LIVER, S-9, TETRACHLOROBIPHENYL, Method: PREINCUBATION): active; positive
mutagenic call (Test System: AMES SALMONELLA TYPHIMURIUM, Strain/Indicator: TA1978, Metabolic Activation: RAT, LIVER, S-9, TETRACHLOROBIPHENYL, Method: PREINCUBATION): active; positive

CC(CN1c2ccccc2Sc2ccccc21)N(C)C (stereo not given)
mutagenic call (End Point: IN VITRO CHROMOSOMAL ABERRATIONS, Test System: CHINESE HAMSTER OVARY CELLS, Metabolic Activation: NONE): inactive; negative
mutagenic call (End Point: IN VITRO CHROMOSOMAL ABERRATIONS, Test System: CHINESE HAMSTER OVARY CELLS, Metabolic Activation: RAT, LIVER, S-9, AROCLOR 1254): inactive; negative
mutagenic call (Test System: AMES SALMONELLA TYPHIMURIUM, Strain/Indicator: TA97, Metabolic Activation: HAMSTER, LIVER, S-9, AROCLOR 1254 (10 OR 30%), Method: PREINCUBATION): inactive; negative
mutagenic call [5]: inactive; negative
mutagenic call (Test System: AMES SALMONELLA TYPHIMURIUM, Strain/Indicator: TA97, Metabolic Activation: RAT, LIVER, S-9, AROCLOR 1254 (10 OR 30%), Method: PREINCUBATION): inactive; negative
mutagenic call (Test System: AMES SALMONELLA TYPHIMURIUM, Strain/Indicator: TA98, Metabolic Activation: HAMSTER, LIVER, S-9, AROCLOR 1254 (10%), Method: PREINCUBATION): inactive; negative
mutagenic call (Test System: AMES SALMONELLA TYPHIMURIUM, Strain/Indicator: TA98, Metabolic Activation: HAMSTER, LIVER, S-9, AROCLOR 1254 (30%), Method: PREINCUBATION): inactive; negative
mutagenic call [6]: inactive; negative
mutagenic call (Test System: AMES SALMONELLA TYPHIMURIUM, Strain/Indicator: TA98, Metabolic Activation: NONE, Method: SPOT TEST): inactive; negative
mutagenic call (Test System: AMES SALMONELLA TYPHIMURIUM, Strain/Indicator: TA98, Metabolic Activation: RAT, LIVER, S-9, AROCLOR 1254 (10%), Method: PREINCUBATION): inactive; negative
mutagenic call (Test System: AMES SALMONELLA TYPHIMURIUM, Strain/Indicator: TA98, Metabolic Activation: RAT, LIVER, S-9, AROCLOR 1254 (30%), Method: PREINCUBATION): inactive; negative
mutagenic call (Test System: AMES SALMONELLA TYPHIMURIUM, Strain/Indicator: TA100, Metabolic Activation: HAMSTER, LIVER, S-9, AROCLOR 1254 (10%), Method: PREINCUBATION): inactive; negative
mutagenic call (Test System: AMES SALMONELLA TYPHIMURIUM, Strain/Indicator: TA100, Metabolic Activation: HAMSTER, LIVER, S-9, AROCLOR 1254 (30%), Method: PREINCUBATION): inactive; negative
mutagenic call [7]: inactive; negative
mutagenic call (Test System: AMES SALMONELLA TYPHIMURIUM, Strain/Indicator: TA100, Metabolic Activation: RAT, LIVER, S-9, AROCLOR 1254 (10%), Method: PREINCUBATION): inactive; negative
mutagenic call (Test System: AMES SALMONELLA TYPHIMURIUM, Strain/Indicator: TA100, Metabolic Activation: RAT, LIVER, S-9, AROCLOR 1254 (30%), Method: PREINCUBATION): inactive; negative
mutagenic call (Test System: AMES SALMONELLA TYPHIMURIUM, Strain/Indicator: TA1535, Metabolic Activation: HAMSTER, LIVER, S-9, AROCLOR 1254 (10%), Method: PREINCUBATION): inactive; negative
mutagenic call (Test System: AMES SALMONELLA TYPHIMURIUM, Strain/Indicator: TA1535, Metabolic Activation: HAMSTER, LIVER, S-9, AROCLOR 1254 (30%), Method: PREINCUBATION): inactive; negative
mutagenic call [3]: inactive; negative
mutagenic call (Test System: AMES SALMONELLA TYPHIMURIUM, Strain/Indicator: TA1535, Metabolic Activation: RAT, LIVER, S-9, AROCLOR 1254 (10%), Method: PREINCUBATION): inactive; negative
mutagenic call (Test System: AMES SALMONELLA TYPHIMURIUM, Strain/Indicator: TA1535, Metabolic Activation: RAT, LIVER, S-9, AROCLOR 1254 (30%), Method: PREINCUBATION): inactive; negative
mutagenic call (Test System: AMES SALMONELLA TYPHIMURIUM, Strain/Indicator: TA1537, Metabolic Activation: HAMSTER, LIVER, S-9, AROCLOR 1254 (10%), Method: PREINCUBATION): inactive; negative
mutagenic call [4]: inactive; negative
mutagenic call (Test System: AMES SALMONELLA TYPHIMURIUM, Strain/Indicator: TA1537, Metabolic Activation: RAT, LIVER, S-9, AROCLOR 1254 (10%), Method: PREINCUBATION): inactive; negative
mutagenic call (Test System: CHINESE HAMSTER V-79, Strain/Indicator: V-79/6-THIOGUANINE, Metabolic Activation: NONE): inactive; negative
mutagenic call (Test System: CHINESE HAMSTER V-79, Strain/Indicator: V-79/OUABAIN, Metabolic Activation: NONE): inactive; negative

Nc1c(C(=O)N/N=C/c2ccccc2)[nH]c2ccccc12
mutagenic call [5]: inactive; negative
mutagenic call (Test System: AMES SALMONELLA TYPHIMURIUM, Strain/Indicator: TA97, Metabolic Activation: S-9 (10%), Method: PREINCUBATION): inactive; negative
mutagenic call [6]: inactive; negative
mutagenic call (Test System: AMES SALMONELLA TYPHIMURIUM, Strain/Indicator: TA98, Metabolic Activation: S-9 (10%), Method: PREINCUBATION): inactive; negative
mutagenic call [7]: inactive; negative
mutagenic call (Test System: AMES SALMONELLA TYPHIMURIUM, Strain/Indicator: TA100, Metabolic Activation: S-9 (10%), Method: PREINCUBATION): inactive; negative
mutagenic call (Test System: AMES SALMONELLA TYPHIMURIUM, Strain/Indicator: TA102, Metabolic Activation: NONE, Method: PREINCUBATION): inactive; negative
mutagenic call (Test System: AMES SALMONELLA TYPHIMURIUM, Strain/Indicator: TA102, Metabolic Activation: S-9 (10%), Method: PREINCUBATION): inactive; negative

OOC1CCCc2ccccc21 (stereo not given)
mutagenic call [1]: inactive; negative
mutagenic call [2]: active; positive
mutagenic call (Test System: AMES SALMONELLA TYPHIMURIUM, Strain/Indicator: TA102, Metabolic Activation: NONE, Method: STANDARD PLATE): inactive; negative
